Patent publication US20110070293A1, “Methods for the Preparation of Liposomes Comprising Docetaxel” (priority 2009, published 2011)
Read-outs that look alike come from different tables or passages of the source.

Tests used:
[1] = Solubilization of docetaxel in fatty acid, fatty acid salt or oleate liposome media; format: physicochemical; details: for solubility: aqueous with cosolvent or surfactant or cyclodextrin
Protocol: (§1) Docetaxel (5 mg) was added to 31 μL of oleic acid and mixed using a VORTEX®. Ethanolamine (6 μL) was subsequently added and mixed using a VORTEX®. After mixing, the sample was dispersed in 963 μL of water for injection. Docetaxel was soluble and the formulation clear at 5 mg/mL. Docetaxel remained soluble, and the formulation was stable, upon dilution (1:10 in 2.5% glycerol) up to 24 hours as analyzed by a reverse phase high performance liquid chromatography method.
(§2) Docetaxel (5.0 mg) was added to 1 mL of 0.05 M sodium oleate and mixed using a VORTEX®. Docetaxel was soluble and the formulation clear at 5.0 mg/mL. Docetaxel remained soluble, and the formulation was stable, upon dilution (1:10 in 2.5% glycerol) up to 24 hours as analyzed by a reverse phase high performance liquid chromatography method.
(§3) Docetaxel (2 mg) was added to 1 mL of 1 M sodium caprylate and mixed by a VORTEX®. Docetaxel was soluble and the formulation clear at 2 mg/mL. Docetaxel remained soluble, and the formulation was stable, upon dilution (1:2 2.5% glycerol) up to 24 hours as analyzed by a reverse phase high performance liquid chromatography method.
(§4) Docetaxel (7.0 mg) was added to 1 mL of 1 M sodium linoleate and mixed using a VORTEX®. Docetaxel was soluble and the formulation clear at 7.0 mg/mL. Docetaxel remained soluble, and the formulation was stable, upon dilution (1:10 2.5% glycerol) up to 24 hours as analyzed by a reverse phase high performance liquid chromatography method.
(§5) Docetaxel (5 mg) was added to 1 mL of pre-made liposome containing 2 mM sodium oleate and 6% soy phosphatidyl choline, 10% trehalose, pH adjusted to 5-7 using Acetic acid, mixed using a VORTEX®, and microfluidized using a Microfluidizer with 10 passes at 15,000 psi. Five additional passes with the Microfluidizer at 15,000 psi were made to incorporate all 5 mg of the drug into 1 mL of pre-made liposome. Docetaxel was soluble and the formulation was transparent at 5 mg/mL. Docetaxel remained soluble, and the formulation was stable, upon dilution (1:10 in D5W) up to 48 hours as analyzed by a reverse phase high performance liquid chromatography method.
(§6) Hydrophobic or lipophilic compounds can be solubilized directly in sodium (or any ion) salt of fatty acid dissolved in an organic solvent. The organic solvent is subsequently removed using rotary evaporation, spray drying, or any other pharmaceutically acceptable processes. The drug-sodium salt of fatty acid mixture is subsequently dispersed in water, isotonic glycerol, or any pharmaceutically acceptable isotonic solution to achieve a desired concentration of the solubilized compound. For example, docetaxel (5 mg/mL) was dissolved in 100 mM sodium oleate in 100% ethanol. Ethanol was completely evaporated using rotary evaporation at 20° C. The docetaxel-sodium oleate was reconstituted with Water For Injection (“WFI”) or 2.5% glycerol to provide 5 mg/mL, 10 mg/mL, or 20 mg/mL concentration of docetaxel.
(§7) 50 μl of Docetaxel in ethanol (100 mg/mL) was added to 1 mL of pre-made liposome containing 2 mM sodium oleate and 6% soy phosphatidyl choline, 10% trehalose and pH adjusted to 5-7 using Acetic acid, mixed using a VORTEX® and microfluidized using a Microfluidizer with 10 passes at 15,000 psi. Docetaxel was soluble and the formulation is transparent at 5 mg/mL. Docetaxel remained soluble, and the formulation was stable, upon dilution (1:10 in D5W) up to 48 hours as analyzed by a reverse phase high performance liquid chromatography method. […] The lyophilized product is reconstituted with water for injection at 5 mg, 10, or 20 mg/mL concentration, essentially free of organic solvent.

[2] = Stability of docetaxel formulations upon dilution (reverse phase HPLC) and after lyophilization; format: physicochemical; details: for time docetaxel remained soluble and formulation stable upon dilution: RP-HPLC
Protocol: as §1, §2, §3, §4, §5, §6, §7

[3] = Incorporation of docetaxel into liposome; format: physicochemical
Protocol: As provided herein, the sequence of the addition of docetaxel results in enhanced solubility of the docetaxel. The conventional method of incorporating a hydrophobic drug into liposome is by adding the drug to lipid before liposome preparation. See, e.g., Immordino, M. L. et al., Journal of Controlled Release, 2003, 91: 417-429. By the conventional process, the incorporation of the drug is only 0.3 to 0.7 mg/mL. When docetaxel is added after liposome preparation, the incorporation of docetaxel is increased from 0.3 mg/mL to 5 mg/mL, which is more than 10 fold increase in solubility of the drug in lipid alone.
In the conventional liposome preparation, the drug to lipid molar percent ratio is 4-6% with the incorporation of drug into liposome efficiency is only 56%. See Immordino, M. L. et al., Journal of Controlled Release, 2003, 91: 417-429.

[4] = cited from earlier work
[5] = docetaxel added to pre-made liposome
[6] = conventional liposome preparation (Immordino et al.)

CC(=O)O[C@@]12CO[C@@H]1C[C@H](O)[C@@]1(C)C(=O)[C@H](O)C3=C(C)[C@@H](OC(=O)[C@H](O)[C@@H](NC(=O)OC(C)(C)C)c4ccccc4)C[C@@](O)([C@@H](OC(=O)c4ccccc4)[C@H]21)C3(C)C [Docetaxel]
solubility ([1]; 0.05 M sodium oleate solution, Example 7: 0.05 M sodium oleate, read-out: concentration at which docetaxel was soluble and formulation clear): 5000 µg/mL
solubility ([1]; 1 M sodium caprylate solution, Example 8: 1 M sodium caprylate, read-out: concentration at which docetaxel was soluble and formulation clear): 2000 µg/mL
solubility ([1]; 1 M sodium linoleate solution, Example 9: 1 M sodium linoleate, read-out: concentration at which docetaxel was soluble and formulation clear): 7000 µg/mL
concentration at which docetaxel was soluble and formulation transparent ([1]; Example 12: docetaxel in ethanol added to pre-made liposome, 2 mM sodium oleate, 6% soy phosphatidyl choline, 10% trehalose, pH 5-7): 5000 µg/mL
solubility ([1]; Example 10: solid docetaxel in pre-made liposome, 2 mM sodium oleate, 6% soy phosphatidyl choline, 10% trehalose, pH 5-7, read-out: concentration at which docetaxel was soluble and formulation transparent): 5000 µg/mL
solubility ([1]; oleic acid / ethanolamine dispersion in water for injection, Example 6: oleic acid, ethanolamine, water for injection, read-out: concentration at which docetaxel was soluble and formulation clear): 5000 µg/mL
time docetaxel remained soluble and formulation stable upon dilution ([2]; Example 6: oleic acid/ethanolamine, dilution 1:10 in 2.5% glycerol): up to 24 hours
time docetaxel remained soluble and formulation stable upon dilution ([2]; Example 7: 0.05 M sodium oleate, dilution 1:10 in 2.5% glycerol): up to 24 hours
time docetaxel remained soluble and formulation stable upon dilution ([2]; Example 8: 1 M sodium caprylate, dilution 1:2 2.5% glycerol): up to 24 hours
time docetaxel remained soluble and formulation stable upon dilution ([2]; Example 9: 1 M sodium linoleate, dilution 1:10 2.5% glycerol): up to 24 hours
time docetaxel remained soluble and formulation stable upon dilution ([2]; Example 10: oleate liposome, dilution 1:10 in D5W): up to 48 hours
time reconstituted docetaxel remained in solution ([2]; Example 11: docetaxel-sodium oleate reconstituted with WFI or 2.5% glycerol): 2 hours, 4 hours, 6 hours, 8 hours or 24 hours
time docetaxel remained soluble and formulation stable upon dilution ([2]; Example 12: oleate liposome, dilution 1:10 in D5W): up to 48 hours
incorporation of docetaxel into liposome ([3]; docetaxel added after liposome preparation): 5 mg/mL
increase in solubility of the drug versus lipid alone ([3]; docetaxel added after liposome preparation vs 0.3 mg/mL): more than 10 fold
drug to lipid molar ratio [3, 5]: 8%
efficiency of incorporation of docetaxel into liposome [3, 5]: about 100%
drug to lipid molar percent ratio [4, 6]: 4-6%
efficiency of incorporation of drug into liposome [4, 6]: 56%
incorporation of the drug into liposome ([4]; conventional process: drug added to lipid before liposome preparation (Immordino et al.)): 0.3 to 0.7 mg/mL
